In US9636329B2, “Methods of treating cancer with glut inhibitors and oxidative phosphorylation inhibitors” (Northwestern University, priority 2012, dated 2017):

Key:
[1] = test system: U266 cells; experiment: Cell death by DAPI staining with doxorubicin at 11 mM or 0.5 mM glucose (FIG. 1C); format: cell-based; details: resistant U266 cells; glucose-free culture (0.5 mM vs 11 mM glucose); 48 hours
Protocol: (§1) FIG. 1. Glucose metabolism sustains myeloma cell proliferation, viability and promotes chemoresistance: (A) Primary myeloma cells, normal B lymphocytes (NBL) and four MM cell lines were cultured in medium containing 0 or 5 mM glucose for 48 (NBL, MM cell lines) or 72 (MM Patient) hours. Cell viability was determined by flow cytometric analysis of AnnexinV/DAPI staining and normalized to 5 mM samples. Data are means±SEM (n=2 for MM cell lines and NBL. n=1 for MM Patient sample). (B) MM cell lines were cultured in various glucose concentrations for 72 hours. Viable cell quantities were determined by MTS assay (represented by absorbance at 490 nm) and normalized to 5 mM samples. U266 cells (C) and normal PBMC (D) were cultured in 11 mM or 0.5 mM glucose-containing medium for 48 hours in the presence of the indicated concentrations of doxorubicin. Cell death was determined by OAPI staining. […] Glucose consumption rates and lactate production rates were determined and normalized to control shRNA-expressing cells. (G-I) Cells from part (E) were analyzed for viability and proliferation. (J) JJN3 cells transduced with control or GLUT1-targeted shRNA and analyzed for viability and proliferation. Viable cell densities are expressed as fold change relative to the day 0 reading of control shRNA-expressing cells. Cells from parts G-J were evaluated for viability via trypan blue exclusion. […]

[2] = test system: normal PBMC; experiment: Cell death by DAPI staining with doxorubicin at 11 mM or 0.5 mM glucose (FIG. 1D); format: cell-based; details: 48 hours
Protocol: as §1

[3] = test system: JJN3 cells; experiment: Oxygen consumption rate (OCR), SeaHorse XF24 bioanalyzer; format: cell-based; details: resistant JJN3 cells; ritonavir alone
Protocol: (§2) FIG. 3. […] Cellular viability was assessed before OCR measurements and 400,000 viable cells were plated in 5 replicates. Result is representative of an n=3.

[4] = test system: L363 cells; experiment: as above; format: cell-based; details: sensitive L363 cells; ritonavir 20 uM; 17 hrs
Protocol: as §2

[5] = test system: NCI-60 cell lines; experiment: NCI-60 panel viability, 48 hr MTS assay (FIG. 5); format: cell-based; details: read-out: median reduction of viability
Description: FIG. 5. […] 48 hr MTS assay, n=3+/−SEM, p<0.05
GLUT4 activity may be prevalent across multiple cancers. To examine the dependency of other cancers on GLUT4 activity, we utilized the NCI-60 cancer cell line panel. […] The NCI-60 lines are representative of genetic heterogeneity within each cancer group. Therefore, it is possible that we may detect a role for GLUT4 in a subset of cancers within each group connected to a specific genotype.

[6] = test system: MM; experiment: Ritonavir anti-myeloma effects in myeloma cell lines and patient samples; format: cell-based
[7] = achieved in humans; read-out: Cmax plasma concentration; cited from earlier work
[8] = target: T1, GLUT4 (Homo sapiens, UniProt P14672); details: cited from earlier work
T1 sequence (P14672 1-509): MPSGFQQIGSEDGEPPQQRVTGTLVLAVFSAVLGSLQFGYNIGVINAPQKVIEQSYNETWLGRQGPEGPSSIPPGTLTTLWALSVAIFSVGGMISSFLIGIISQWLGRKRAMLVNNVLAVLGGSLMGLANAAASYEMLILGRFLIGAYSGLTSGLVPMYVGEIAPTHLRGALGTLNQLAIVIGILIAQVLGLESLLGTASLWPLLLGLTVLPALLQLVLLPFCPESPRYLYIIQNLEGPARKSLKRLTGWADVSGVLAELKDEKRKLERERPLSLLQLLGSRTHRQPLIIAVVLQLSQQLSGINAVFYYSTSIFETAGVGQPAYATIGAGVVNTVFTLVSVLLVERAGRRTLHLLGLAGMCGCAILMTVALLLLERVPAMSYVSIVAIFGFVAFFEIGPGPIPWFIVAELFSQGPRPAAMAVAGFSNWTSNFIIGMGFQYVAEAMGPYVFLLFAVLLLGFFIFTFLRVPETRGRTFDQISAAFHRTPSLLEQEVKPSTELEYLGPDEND

[9] = target: T2, GLUT1 (Homo sapiens, UniProt P11166); details: cited from earlier work
T2 sequence (P11166 1-492): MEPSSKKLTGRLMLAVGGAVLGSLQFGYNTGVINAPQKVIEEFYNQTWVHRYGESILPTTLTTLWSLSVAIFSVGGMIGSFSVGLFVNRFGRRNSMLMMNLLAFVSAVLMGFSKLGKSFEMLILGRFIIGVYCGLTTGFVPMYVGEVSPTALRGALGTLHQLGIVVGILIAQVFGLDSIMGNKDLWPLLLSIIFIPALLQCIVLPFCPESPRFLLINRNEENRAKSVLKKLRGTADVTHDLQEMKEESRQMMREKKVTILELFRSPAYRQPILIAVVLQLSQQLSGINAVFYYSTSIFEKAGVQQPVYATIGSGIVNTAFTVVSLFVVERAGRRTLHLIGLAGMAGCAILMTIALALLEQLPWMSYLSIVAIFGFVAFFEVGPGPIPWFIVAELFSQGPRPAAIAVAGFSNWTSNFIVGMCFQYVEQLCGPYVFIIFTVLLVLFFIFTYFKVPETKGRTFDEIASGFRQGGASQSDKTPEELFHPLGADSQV

[10] = test system: JJN3 cells; details: JJN3 cultured in the absence of glucose; metformin 5 mM; 72 hrs
Description: (§3) To investigate whether mitochondrial oxidative phosphorylation can render MM cells resistant to glucose-deprivation we treated cells with metformin. which is a known mitochondrial complex 1 inhibitor [25-27]).

[11] = test system: L363 cells; experiment: Viability of MM cell lines by Annexin/DAPI staining (FIG. 2); format: cell-based; details: glucose-deprived L363 cells + galactose 10 mM; metformin 5 mM; 72 hrs
Description: as §3

[12] = test system: MM cells; experiment: Viability of MM cells, glucose deprivation / ritonavir / metformin; format: cell-based; details: absence of glucose; metformin 5 mM; 72 hrs
Description: as §3

## COc1cccc2c1C(=O)c1c(O)c3c(c(O)c1C2=O)C[C@@](O)(C(=O)CO)C[C@@H]3O[C@H]1C[C@H](N)[C@H](O)[C@H](C)O1 [doxorubicin]
[1]
  sensitivity to doxorubicin (cell death): sensitizes
[2]
  impact of doxorubicin on normal PBMC (cell death): not impacted

## CC(C)c1nc(CN(C)C(=O)N[C@H](C(=O)N[C@@H](Cc2ccccc2)C[C@H](O)[C@H](Cc2ccccc2)NC(=O)OCc2cncs2)C(C)C)cs1 [ritonavir]
[3]
  oxygen consumption rate (OCR): increase in oxygen consumption rate
[4]
  oxygen consumption rate (OCR): significant reduction in OCR
[5]
  cytotoxicity at 20 µM: ≥ 50%
[6]
  chemosensitization of resistant MM to doxorubicin: chemosensitizing
[6]; physiologically achievable doses of ritonavir
  glucose inhibitory and growth inhibitory effects in MM: significant glucose inhibitory and growth inhibitory effects
[7]
  Cmax: 16 µM
[8]
  inhibition of cytoplasmic glucose binding site: competitively inhibit
[9]
  inhibition of cytoplasmic glucose binding site: competitively inhibit

## CN(C)C(=N)N=C(N)N [metformin]
[10]
  sensitization of glucose deprived cells to metformin (viability): sensitized to metformin
[11]
  reversal of galactose rescue of viability: reverses the metabolic rescue provided by galactose
[12]
  sensitization of glucose deprived MM cells to metformin (viability): sensitized to metformin
